Experimental data as given in ChEMBL document CHEMBL3632504, “Discovery of 1H-pyrazolo[3,4-b]pyridines as potent dual orexin receptor antagonists (DORAs)” (Bioorg Med Chem Lett, 2015).
In brackets after ≈: the same amount, converted by molar mass. Blank lines part the entries; values can stand above or below the molecule they belong to.

Experiments:
Orexin receptor type 2 [1] = target: T1, Orexin receptor type 2 (Homo sapiens, UniProt O43614); test: Antagonist activity against human orexin 2 receptor after 1 hr by Ca2+ sensitive Fluo4-AM fluorescent dye-based FLIPR assay; assay type: functional
T1 sequence (O43614 whole entry): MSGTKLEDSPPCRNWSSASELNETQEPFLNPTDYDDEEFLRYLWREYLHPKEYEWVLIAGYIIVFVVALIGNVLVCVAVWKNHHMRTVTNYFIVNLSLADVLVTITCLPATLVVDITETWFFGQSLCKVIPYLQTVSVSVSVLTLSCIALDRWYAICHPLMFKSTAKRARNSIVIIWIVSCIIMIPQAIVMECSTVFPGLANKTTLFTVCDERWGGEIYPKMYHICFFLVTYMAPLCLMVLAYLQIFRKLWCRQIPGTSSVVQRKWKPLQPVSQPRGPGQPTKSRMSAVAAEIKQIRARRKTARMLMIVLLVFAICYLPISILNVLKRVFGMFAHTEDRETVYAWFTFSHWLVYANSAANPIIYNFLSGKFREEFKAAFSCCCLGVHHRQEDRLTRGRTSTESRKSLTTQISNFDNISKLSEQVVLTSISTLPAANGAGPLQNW

[2] = Octanol/water partition coefficient, logP of the compound; assay type: physicochemical
[3] = Equilibrium solubility of the compound at pH 6.8; assay type: physicochemical; conditions: buffer
[4] = Intrinsic clearance in rat liver microsomes; assay type: ADME; conditions: read-out: CLH
[5] = target: T2, Orexin/Hypocretin receptor type 1 (Homo sapiens, UniProt O43613)
T2 sequence (O43613 whole entry): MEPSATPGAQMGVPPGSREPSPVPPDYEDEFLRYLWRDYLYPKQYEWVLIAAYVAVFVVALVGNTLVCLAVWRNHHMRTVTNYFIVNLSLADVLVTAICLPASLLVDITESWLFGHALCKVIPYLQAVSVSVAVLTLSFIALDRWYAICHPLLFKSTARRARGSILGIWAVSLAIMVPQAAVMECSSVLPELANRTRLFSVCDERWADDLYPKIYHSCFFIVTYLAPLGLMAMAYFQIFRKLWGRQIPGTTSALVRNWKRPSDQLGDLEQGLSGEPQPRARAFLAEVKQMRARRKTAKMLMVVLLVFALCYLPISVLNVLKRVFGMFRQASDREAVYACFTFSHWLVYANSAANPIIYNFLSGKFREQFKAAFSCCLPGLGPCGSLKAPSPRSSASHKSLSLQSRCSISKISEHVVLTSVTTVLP
Description: Antagonist activity against human orexin 1 receptor after 1 hr by Ca2+ sensitive Fluo4-AM fluorescent dye-based FLIPR assay

Homo sapiens = organism: Homo sapiens; test: Selectivity ratio of Ki for human orexin 1 receptor to Ki for human orexin 2 receptor
[6] = Drug metabolism in mouse liver microsomes assessed as oxidation at benzylic position of amide; assay type: ADME
Liver microsome [7] = test: Drug metabolism in human liver microsomes assessed as oxidation at benzylic position of amide; assay type: ADME
[8] = Drug metabolism in mouse liver microsomes assessed as oxidation at phenyl ring in 3-position of core moiety; assay type: ADME
Liver microsome [9] = test: Drug metabolism in human liver microsomes assessed as oxidation at phenyl ring in 3-position of core moiety; assay type: ADME
Mus musculus [10] = organism: Mus musculus; test: Drug metabolism in mouse assessed as oxidation at benzylic position of amide; assay type: ADME, organism-based; conditions: in vivo
Mus musculus [11] = organism: Mus musculus; test: Drug metabolism in mouse assessed as oxidation at phenyl ring in 3-position of core moiety; assay type: ADME, organism-based; conditions: in vivo
[12] = target: T2, Orexin/Hypocretin receptor type 1; test: Displacement of [125l]orexin A from human orexin 1 receptor expressed in CHO cells after 1 hr; assay type: cell-based
Orexin receptor type 2 [13] = target: T1, Orexin receptor type 2; test: Displacement of [125l]orexin A from human orexin 2 receptor expressed in CHO cells after 1 hr; assay type: cell-based
[14] = Permeability of the compound by PAMPA; assay type: physicochemical
MDR1 = test: Efflux ratio of permeability from basolateral to apical side over apical to basolateral side in MDCK cells expressing MDR1; assay type: ADME, cell-based, Canis lupus familiaris; conditions: dog
Cytochrome P450 3A4 = Cytochrome P450 3A4 (Homo sapiens, UniProt P08684); test: Inhibition of CYP3A4 (unknown origin); assay type: ADME
Cytochrome P450 2D6 = Cytochrome P450 2D6 (Homo sapiens, UniProt P10635); test: Inhibition of CYP2D6 (unknown origin); assay type: ADME
Cytochrome P450 2C9 = Cytochrome P450 2C9 (Homo sapiens, UniProt P11712); test: Inhibition of CYP2C9 (unknown origin); assay type: ADME
[15] = Intrinsic clearance in human liver microsomes; assay type: ADME; conditions: read-out: CLH
[16] = Intrinsic clearance in mouse liver microsomes; assay type: ADME; conditions: read-out: CLH
[17] = Plasma protein binding in human; assay type: ADME, cell-free; conditions: read-out: PPB (converted)
[18] = Plasma protein binding in mouse; assay type: ADME; conditions: read-out: PPB
[19] = target: Voltage-gated inwardly rectifying potassium channel KCNH2 (Homo sapiens, UniProt Q12809); test: Binding affinity to human ERG
[20] = Blood clearance in mouse at 1 mg/kg, iv administered through cassette dosing; assay type: ADME, organism-based
[21] = Volume of distribution at steady state in mouse at 1 mg/kg, iv administered through cassette dosing; assay type: ADME, organism-based; conditions: in vivo, read-out: Vdss
[22] = Terminal half life in mouse at 1 mg/kg, iv administered through cassette dosing; assay type: ADME, organism-based; conditions: in vivo, read-out: beta t1/2 (converted)
Blood [23] = test: Dose-normalized Cmax in mouse blood at 3 mg/kg, po administered through cassette dosing; assay type: ADME, organism-based; conditions: in vivo
Blood [24] = test: Dose-normalized AUC in mouse blood at 3 mg/kg, po administered through cassette dosing; assay type: ADME, organism-based; conditions: in vivo
[25] = Oral bioavailability in mouse at 3 mg/kg administered through cassette dosing; assay type: ADME, organism-based; conditions: in vivo
Plasma = test: Fraction unbound in mouse plasma; assay type: ADME, cell-free
in vivo = conditions: mouse, brain / blood, po, 3 mg/kg
Description: Ratio of drug level in brain to blood in mouse at 3 mg/kg, po at 1 hr post dose administered through cassette dosing

Cytochrome P450 2C9, sequence (P11712 whole entry): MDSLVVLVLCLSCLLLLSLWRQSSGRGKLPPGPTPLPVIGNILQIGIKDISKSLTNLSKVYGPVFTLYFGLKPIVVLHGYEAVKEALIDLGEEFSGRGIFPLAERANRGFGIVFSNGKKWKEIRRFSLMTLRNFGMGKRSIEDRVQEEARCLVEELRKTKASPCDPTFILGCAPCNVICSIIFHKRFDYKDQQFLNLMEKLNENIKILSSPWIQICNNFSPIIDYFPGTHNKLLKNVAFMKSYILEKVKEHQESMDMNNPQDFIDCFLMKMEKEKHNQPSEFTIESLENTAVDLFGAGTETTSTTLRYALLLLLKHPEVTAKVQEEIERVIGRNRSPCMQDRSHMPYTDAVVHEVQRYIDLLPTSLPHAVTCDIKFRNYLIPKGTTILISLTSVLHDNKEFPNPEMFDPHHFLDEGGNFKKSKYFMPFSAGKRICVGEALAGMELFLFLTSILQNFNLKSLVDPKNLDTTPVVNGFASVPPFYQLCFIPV
Cytochrome P450 2D6, sequence (P10635 whole entry): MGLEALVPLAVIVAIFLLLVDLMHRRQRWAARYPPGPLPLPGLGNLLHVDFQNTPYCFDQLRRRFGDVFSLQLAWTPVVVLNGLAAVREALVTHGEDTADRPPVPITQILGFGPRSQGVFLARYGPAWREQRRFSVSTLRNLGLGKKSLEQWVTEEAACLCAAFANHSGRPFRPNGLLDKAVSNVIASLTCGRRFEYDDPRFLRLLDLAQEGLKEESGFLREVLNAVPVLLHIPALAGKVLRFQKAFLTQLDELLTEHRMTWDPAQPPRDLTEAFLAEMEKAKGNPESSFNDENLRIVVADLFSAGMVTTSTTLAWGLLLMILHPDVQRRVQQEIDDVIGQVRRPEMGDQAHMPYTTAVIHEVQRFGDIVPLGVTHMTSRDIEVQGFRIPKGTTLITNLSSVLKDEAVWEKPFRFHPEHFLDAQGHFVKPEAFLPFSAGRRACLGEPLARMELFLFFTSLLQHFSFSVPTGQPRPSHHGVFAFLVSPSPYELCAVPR
Cytochrome P450 3A4, sequence (P08684 whole entry): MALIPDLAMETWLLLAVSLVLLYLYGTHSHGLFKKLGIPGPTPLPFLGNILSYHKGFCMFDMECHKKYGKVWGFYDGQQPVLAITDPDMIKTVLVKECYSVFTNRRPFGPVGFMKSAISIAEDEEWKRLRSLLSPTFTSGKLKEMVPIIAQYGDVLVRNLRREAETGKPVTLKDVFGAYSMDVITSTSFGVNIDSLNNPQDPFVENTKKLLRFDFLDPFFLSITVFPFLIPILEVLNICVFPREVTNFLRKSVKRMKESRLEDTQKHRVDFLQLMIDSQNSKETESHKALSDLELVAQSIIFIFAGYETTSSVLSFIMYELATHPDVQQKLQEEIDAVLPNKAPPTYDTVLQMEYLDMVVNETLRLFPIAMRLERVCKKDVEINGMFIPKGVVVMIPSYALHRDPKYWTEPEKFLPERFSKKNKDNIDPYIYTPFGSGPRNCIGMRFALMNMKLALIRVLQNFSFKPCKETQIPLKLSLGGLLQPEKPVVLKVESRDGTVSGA
Voltage-gated inwardly rectifying potassium channel KCNH2, sequence (Q12809 whole entry): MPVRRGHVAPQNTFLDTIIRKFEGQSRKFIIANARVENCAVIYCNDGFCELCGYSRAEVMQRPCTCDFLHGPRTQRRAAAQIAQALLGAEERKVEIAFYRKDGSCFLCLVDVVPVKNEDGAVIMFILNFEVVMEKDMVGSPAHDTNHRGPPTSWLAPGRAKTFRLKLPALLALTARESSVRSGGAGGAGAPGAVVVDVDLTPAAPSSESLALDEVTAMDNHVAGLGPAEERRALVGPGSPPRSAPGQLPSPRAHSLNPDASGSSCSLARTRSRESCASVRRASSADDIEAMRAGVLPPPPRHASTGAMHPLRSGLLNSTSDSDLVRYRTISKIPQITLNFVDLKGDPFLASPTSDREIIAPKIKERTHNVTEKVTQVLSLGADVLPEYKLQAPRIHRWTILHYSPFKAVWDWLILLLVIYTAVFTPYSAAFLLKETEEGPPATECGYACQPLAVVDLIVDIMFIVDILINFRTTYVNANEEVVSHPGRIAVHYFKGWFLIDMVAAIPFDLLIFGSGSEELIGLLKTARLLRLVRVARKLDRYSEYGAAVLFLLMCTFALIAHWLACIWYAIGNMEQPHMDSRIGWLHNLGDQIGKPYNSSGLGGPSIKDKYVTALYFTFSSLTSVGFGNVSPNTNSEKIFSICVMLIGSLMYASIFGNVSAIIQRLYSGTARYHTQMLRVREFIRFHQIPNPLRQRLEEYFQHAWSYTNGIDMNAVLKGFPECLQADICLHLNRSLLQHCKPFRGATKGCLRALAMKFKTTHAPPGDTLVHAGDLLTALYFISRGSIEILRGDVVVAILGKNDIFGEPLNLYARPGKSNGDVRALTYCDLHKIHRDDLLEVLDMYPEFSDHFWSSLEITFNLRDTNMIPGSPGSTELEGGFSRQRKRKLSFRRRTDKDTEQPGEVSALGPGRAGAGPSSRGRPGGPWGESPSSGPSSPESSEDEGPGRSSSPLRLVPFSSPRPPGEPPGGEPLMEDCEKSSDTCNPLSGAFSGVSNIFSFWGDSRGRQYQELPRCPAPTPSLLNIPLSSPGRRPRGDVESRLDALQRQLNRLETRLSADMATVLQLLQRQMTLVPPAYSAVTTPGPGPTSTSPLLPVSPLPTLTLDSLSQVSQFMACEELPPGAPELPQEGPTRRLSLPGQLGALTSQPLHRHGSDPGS

SMILES: Cc1ccc([C@H](C)NC(=O)COc2cc(C)c3c(-c4cnccn4)nn(C)c3n2)cc1
logP [2]: 3.9
solubility thermodynamic [3]: 115 µM (≈ 47.9 µg/mL)

SMILES: COc1ccc([C@H](C)NC(=O)COc2cc(C(F)(F)F)c3c(-c4ccccc4)nn(C)c3n2)cc1
Ratio Ki (Homo sapiens): 7
Ki [12]: 8 nM
Ki (Orexin receptor type 2 [13]): 4 nM
logP [2]: 4.6
solubility thermodynamic [3]: < 4 µM
log(permeability) [14]: -4
efflux ratio (MDR1): 1
IC50 (Cytochrome P450 3A4): 8000 nM
IC50 (Cytochrome P450 2D6): > 20000 nM
IC50 (Cytochrome P450 2C9): 5000 nM
microsomal CLint [4]: 147 µL/min/mg
microsomal CLint [15]: 190 µL/min/mg
microsomal CLint [16]: 478 µL/min/mg
fraction unbound [17]: < 0.01
fraction unbound [18]: < 0.01
IC50 [19]: > 30000 nM
clearance [20]: 65 mL/min/kg
Vd [21]: 2 L/kg
half-life [22]: 66 min
Cmax/dose (Blood [23]): 4 nM
AUC/dose (Blood [24]): 17 nM·h
bioavailability [25]: 3%
Fu (Plasma): < 1%
Kp at 1 h (in vivo): 1.15

SMILES: Cc1ccc2c(n1)CC[C@@H]2NC(=O)COc1cc(C)c2c(C3CC3)nn(C)c2n1
Ratio Ki (Homo sapiens): 4.95
clearance [20]: 66 mL/min/kg
Vd [21]: 0.4 L/kg
half-life [22]: 18 min
Cmax/dose (Blood [23]): 115 nM
AUC/dose (Blood [24]): 106 nM·h
bioavailability [25]: 16%
Kp at 1 h (in vivo): 0.13

SMILES: COc1ccc(C(C)NC(=O)COc2cc(C(F)(F)F)c3c(-c4ccccc4)nn(C)c3n2)cc1 (racemic)
Ratio Ki (Homo sapiens): 14.5

SMILES: Cc1n[nH]c(C)c1[C@H](C)NC(=O)COc1cc(C(F)(F)F)c2c(-c3ccccc3)nn(C)c2n1
logP [2]: 4.2
solubility thermodynamic [3]: < 4 µM
log(permeability) [14]: -4.1
IC50 (Cytochrome P450 3A4): > 20000 nM
IC50 (Cytochrome P450 2D6): > 20000 nM
IC50 (Cytochrome P450 2C9): > 20000 nM
microsomal CLint [4]: 603 µL/min/mg
microsomal CLint [15]: 433 µL/min/mg
microsomal CLint [16]: 330 µL/min/mg
fraction unbound [17]: 0.04
fraction unbound [18]: < 0.01
clearance [20]: 20 mL/min/kg
Vd [21]: 0.5 L/kg
half-life [22]: 30 min
Cmax/dose (Blood [23]): 300 nM
AUC/dose (Blood [24]): 371 nM·h
bioavailability [25]: 21%
Fu (Plasma): < 1%

SMILES: Cc1nn(C)c(C)c1C(C)NC(=O)COc1cc(C(F)F)c2c(-c3ccccc3)nn(C)c2n1 (racemic)
logP [2]: 3.9
solubility thermodynamic [3]: 248 µM (≈ 116 µg/mL)

SMILES: Cc1nn(C)c(C)c1C(C)NC(=O)COc1cc(C(F)F)c2c(C3CC3)nn(C)c2n1 (racemic)
logP [2]: 2.8
solubility thermodynamic [3]: 657 µM (≈ 284 µg/mL)
microsomal CLint [4]: 660 µL/min/mg

SMILES: COc1ccc([C@@H](C)NC(=O)COc2cc(C(F)(F)F)c3c(-c4ccccc4)nn(C)c3n2)cc1
Ratio Ki (Homo sapiens): 2.41

SMILES: Cc1nn(C)c(C)c1[C@H](C)NC(=O)COc1cc(C(F)(F)F)c2c(-c3ccccc3)nn(C)c2n1
Ki (Orexin receptor type 2 [1]; read-out: Ki): 10 nM
Ratio Ki (Homo sapiens): 0.7
Ki [5]: 7 nM

SMILES: COc1ccc(CNC(=O)COc2cc(C(F)(F)F)c3c(-c4ccccc4)nn(C)c3n2)cc1
Ratio Ki (Homo sapiens): 9.64

SMILES: Cc1cc2c(cn1)[C@@H](NC(=O)COc1cc(C)c3c(C4CC4)nn(C)c3n1)CC2
logP [2]: 3.5
solubility thermodynamic [3]: 25 µM (≈ 9.79 µg/mL)
microsomal CLint [4]: 924 µL/min/mg

SMILES: C[C@H](NC(=O)COc1cc(C(F)(F)F)c2c(-c3ccccc3)n[nH]c2n1)c1ccccc1
Ratio Ki (Homo sapiens): 4.65

SMILES: Cc1ccc([C@H](C)NC(=O)COc2cc(C)c3c(-c4ncccn4)nn(C)c3n2)cc1
Ki (Orexin receptor type 2 [1]; read-out: Ki): 5 nM
logP [2]: 3.3
solubility thermodynamic [3]: 43 µM (≈ 17.9 µg/mL)

Next, values leading:

Ki (Orexin receptor type 2 [1]; read-out: Ki): 367 nM
logP [2]: 3.5
solubility thermodynamic [3]: 40 µM (≈ 18.2 µg/mL)
microsomal CLint [4]: 924 µL/min/mg
Ki [5]: 660 nM
SMILES: C[C@H](NC(=O)COc1cc(C(F)(F)F)c2c(-c3ccccn3)nn(C)c2n1)c1ccccc1

Ratio Ki (Homo sapiens): 1.62
logP [2]: 4.7
solubility thermodynamic [3]: < 4 µM
Drug metabolism [6]: metabolite_detected
Drug metabolism (Liver microsome [7]): metabolite_detected
Drug metabolism [8]: metabolite_detected
Drug metabolism (Liver microsome [9]): metabolite_detected
Drug metabolism (Mus musculus [10]): metabolite_detected
Drug metabolism (Mus musculus [11]): metabolite_detected
SMILES: C[C@H](NC(=O)COc1cc(C(F)(F)F)c2c(-c3ccccc3)nn(C)c2n1)c1ccccc1

Ki (Orexin receptor type 2 [1]; read-out: Ki): 78 nM
Ratio Ki (Homo sapiens): 1.54
Ki [12]: 88 nM
Ki (Orexin receptor type 2 [13]): 168 nM
Ki [5]: 120 nM
SMILES: CC(NC(=O)COc1cc(C(F)(F)F)c2c(-c3ccccc3)nn(C)c2n1)c1ccccc1 (racemic)

Ratio Ki (Homo sapiens): 0.77
SMILES: COc1cccc(C(C)NC(=O)COc2cc(C(F)(F)F)c3c(-c4ccccc4)nn(C)c3n2)c1 (racemic)

Ratio Ki (Homo sapiens): 0.31
SMILES: C[C@H](NC(=O)CNc1cc(C(F)(F)F)c2c(-c3ccccc3)nn(C)c2n1)c1ccccc1

Ratio Ki (Homo sapiens): 1.73
SMILES: COc1ccccc1C(C)NC(=O)COc1cc(C(F)(F)F)c2c(-c3ccccc3)nn(C)c2n1 (racemic)

Ki (Orexin receptor type 2 [1]): Not Active
SMILES: CC(NC(=O)COc1cc(C(F)(F)F)c2c(-c3ccccc3)nn(C)c2n1)c1ccccn1 (racemic)

Ratio Ki (Homo sapiens): 1.67
SMILES: CC(NC(=O)COc1cc(C(F)(F)F)c2c(-c3ccccc3)nn(C)c2n1)c1cccnc1 (racemic)
